According to US20240043860A1, “NOVEL HYDROXYPHENYLPYRUVATE DIOXYGENASE POLYPEPTIDES AND METHODS OF USE THEREOF” (Syngenta Crop Protection AG, priority 2020, published 2024):
Read-outs that look alike come from different tables or passages of the source.

Legend:
[1] = system: HPPD variant ALOME V162 (SEQ ID NO: 126); experiment: coupled HGO assay; assay type: biochemical, Alopecurus myosuroides
Procedure: (§1) DNA sequences (SEQ ID NOs: 65-118, 128, 130, 131, and 133), synthesized for expression in E. coli, by GeneWiz (USA) to encode HPPD variants (SEQ ID NOs: 5-58, 122, 124, 125 and 127) derived from either Avena sativa (SEQ ID NOs: 122, 124), Alopecurus myosuroides (SEQ ID NO: 126) or Apera spica-venti (SEQ ID NOs: 123, 125) were transformed into E coli BL21 (DE3) (New England Biolabs) and grown in 0.5 ml Terrific broth +50 ug/ml Kanamycin media in a 96-deepwell block overnight (37° C., 900rpm). 25 ul of the overnight cultures were inoculated into fresh 96-deepwell block containing 1 ml Formedium Autoinduction Media (AIM). The AIM cultures were grown for 3h at 37° C. (900rpm) and then transferred to 20° C. overnight (900rpm) to allow protein expression. The overnight cultures were centrifuged and 500 ul of Cellytic B (Sigma Aldrich) was added to resuspend the cell pellets. The coupled HGO assay (Siehl et al, 2014) is used to generate IC50 values for the HPPD variants of interest.
(§2) E. coli BL21 (DE3) cells were transformed with a pET24a vector containing a C-terminally his-tagged Arabidopsis HGO gene, grown and induced overnight as described for the HPPD variants above. The cell pellet was resuspended in phosphate buffered saline at pH 7.4 containing 10% Glycerol, 1mm Tris[2-carboxyethyl] phosphine-HCl (TCEP) plus 30 mM Imidazole and lysed using lysozyme/benzonase. The extract was clarified by low speed centrifugation and purified in the same buffer down a 1 ml His Gravitrap column. The bound HGO was eluted in 0.25M imidazole and the fractions pooled and beaded into liquid nitrogen. All procedures apart from the centrifugation and beading steps were carried out under a nitrogen atmosphere.
(§3) The coupled HGO assay is carried out by adding 10 ul of HPPD extract to a 96-well plate and then adding 40 ul of reaction buffer (50 mM Bis Tris Propane, pH7.0, 25 mM sodium-L-ascorbate, 400μM mercaptoethanol, 50 μM Fe(II)SO4). The plates are left to incubate for 5 minutes on ice. […] 200 ul of HPP/HGO (197 μM hydroxyphenylpyruvic acid, 16 μl/ml Homogentisic Acid Oxidase in reaction buffer as described above) buffer is then added to the well and the reaction is regularly monitored (e.g. every 30 seconds-5 minutes) for absorbance at 330 nm for a given time period (e.g., for between 15-60 minutes). The data can then be used to calculate the IC50 value for each HPPD variant of interest.

[2] = molecular target: HPPD variant AVESA V358 (SEQ ID NO: 56) (Avena sativa, UniProt A0ACD5V6K6, A327R/I340E/L359M/P271N/R214G/S304T/V218I/V260A); experiment: biochemical; assay type: biochemical
Procedure: (§4) 25 ul of the overnight cultures were inoculated into fresh 96-deepwell block containing 1 ml Formedium Autoinduction Media (AIM). The AIM cultures were grown for 3h at 37° C. (900rpm) and then transferred to 20° C. overnight (900rpm) to allow protein expression. The overnight cultures were centrifuged and 500 ul of Cellytic B (Sigma Aldrich) was added to resuspend the cell pellets. The coupled HGO assay (Siehl et al, 2014) is used to generate IC50 values for the HPPD variants of interest.
as §2, §3

[3] = molecular target: HPPD variant AVESA V162 (SEQ ID NO: 122) (Avena sativa, UniProt A0ACD5V6K6, A327R/I340E/L359M/V218I); experiment: biochemical; assay type: biochemical
Procedure: as §4, §2, §3

[4] = molecular target: HPPD variant AVESA V313 (SEQ ID NO: 38) (Avena sativa, UniProt A0ACD5V6K6, A327R/I340E/L359Y/P271N/R214G/V218I/V260A); experiment: biochemical; assay type: biochemical
Procedure: as §4, §2, §3

[5] = molecular target: HPPD variant AVESA V306 (SEQ ID NO: 32) (Avena sativa, UniProt A0ACD5V6K6, A327R/I340E/L359M/P271N/R214G/V218I); experiment: biochemical; assay type: biochemical
Procedure: as §4, §2, §3

[6] = system: HPPD variant APESV V162 (SEQ ID NO: 123); experiment: coupled HGO assay; assay type: biochemical, Apera spica-venti
Procedure: as §1, §2, §3

[7] = AVESA V358, SEQ ID NO: 56, read-out: IC50
[8] = AVESA V162, SEQ ID NO: 122, read-out: IC50
[9] = AVESA V313, SEQ ID NO: 38, read-out: IC50
[10] = AVESA V306, SEQ ID NO: 32, read-out: IC50

Sequence of HPPD variant AVESA V162 (SEQ ID NO: 122) (A0ACD5V6K6 entry or part of it V218I/A327R/I340E/L359M): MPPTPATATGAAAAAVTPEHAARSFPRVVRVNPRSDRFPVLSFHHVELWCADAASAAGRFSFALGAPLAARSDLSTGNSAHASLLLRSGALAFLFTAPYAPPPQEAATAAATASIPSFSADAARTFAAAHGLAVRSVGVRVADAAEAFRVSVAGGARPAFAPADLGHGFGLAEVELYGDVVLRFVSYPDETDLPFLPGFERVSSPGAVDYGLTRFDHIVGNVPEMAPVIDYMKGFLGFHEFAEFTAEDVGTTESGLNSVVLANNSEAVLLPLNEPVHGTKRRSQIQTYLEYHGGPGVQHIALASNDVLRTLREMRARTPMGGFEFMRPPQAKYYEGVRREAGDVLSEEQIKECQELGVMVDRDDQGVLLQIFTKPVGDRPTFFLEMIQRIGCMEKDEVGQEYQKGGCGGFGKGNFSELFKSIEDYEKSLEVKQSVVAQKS
Sequence of HPPD variant AVESA V358 (SEQ ID NO: 56) (A0ACD5V6K6 entry or part of it R214G/V218I/V260A/P271N/S304T/A327R/I340E/L359M): as the sequence (A0ACD5V6K6 entry or part of it V218I/A327R/I340E/L359M) above, with R214G, V260A, P271N, S304T counted along it
Sequence of HPPD variant AVESA V306 (SEQ ID NO: 32) (A0ACD5V6K6 entry or part of it R214G/V218I/P271N/A327R/I340E/L359M): as the sequence (A0ACD5V6K6 entry or part of it V218I/A327R/I340E/L359M) above, with R214G, P271N counted along it
Sequence of HPPD variant AVESA V313 (SEQ ID NO: 38) (A0ACD5V6K6 entry or part of it R214G/V218I/V260A/P271N/A327R/I340E/L359Y): as the sequence (A0ACD5V6K6 entry or part of it V218I/A327R/I340E/L359M) above, with R214G, V260A, P271N, M359Y counted along it

Compound | IC50 [1] [nM] | IC50 [2, 7] [µM] | IC50 [3, 8] [nM] | IC50 [4, 9] [nM] | IC50 [5, 10] [µM] | IC50 [6] [nM] | IC50 [2] [µM] | IC50 [3] [nM] | IC50 [4] [nM] | IC50 [5] [µM]
COc1ccc(-n2nc(C)cc(C(=O)C3C(=O)CCCC3=O)c2=O)cc1OC [Herbicide C, dioxopyritrione] | 250 | < 0.19 | 250 | ~200 | > 50 | 260 | – | – | – | –
Cn1nnnc1NC(=O)c1ccc(C(F)(F)F)nc1-n1cncn1 [Herbicide D, N-(1-methyltetrazol-5-yl)-2-(1,2,4-triazol-1-yl)-6-(trifluoromethyl)pyridine-3-carboxamide] | 10500 | – | – | – | – | 11400 | 177 | 6730 | 205000 | 129
bicyclopyrone | 530 | < 0.39 | 380 | < 390 | 10.2 | < 390 | – | – | – | –
